Test results from US20230133393A1, “DIBORIDE MICROPATTERNED SURFACES FOR CELL CULTURE” (University of Houston System, priority 2020, published 2023).
“Also recorded” adds a separate entry of the source.

Test system: SKOV3 cells
Assay: Effect of SAHA on SKOV3 3D aggregates and cellular bridges cultured on Si—TiB2 substrate
Format: cell-based
Protocol: Cell culture of ovarian cancer cell lines: SKOV3 and OVCAR3 cell lines were cultured in Cancer Media (CM) ([…] with glutamine (02-0205 VWR Life Science), 1% antibiotics (Sigma-Aldrich A5955), and 0.1% insulin (ABM TM053)). For cell culture on substrates CM was supplemented with 10 ng/mL human FGF2 (Sigma-Aldrich F0291)+1% heparin (Sigma-Aldrich H3393). Cells were cultured in a humidified incubator at 37° C. with 5% CO2.
The inventors used their Si-diborides substrates (described in [200]) for culture of SKOV3 (ATCC® HTB-77™) cancer cells of high invasive potential. Cells were seeded on Si—TiB2 substrates (2×2 cm) at a density of 600/mm^2, and each substrate will be placed in a well of a 24-well dish and cultured in RPMI 1640 with glutamine, 20% FBS, 1% antibiotics, 0.01 mg/mL Insulin, 10 ng/ml FGF2 and 1% heparin 1 over 10 days to establish a monolayer (days 1-3) or allowed to form 3D aggregates (days 4-10). A 2×2 cm substrate can accommodate at least 500, 300 μm circle patterns (aka 500 3D aggregates of ˜150-200 μm diameter and 60-80 μm thickness). Based on preliminary data, the rate of “cellular bridge” formation is 13%/substrate or 50%/aggregate. As shown in FIGS. 9A-C, FIGS. 10A-C and FIG. 11A-B, highly invasive SKOV3 begin as monolayers and then self-assemble to form 3D aggregates. Importantly, the inventors are able to control dynamics of aggregation and size and number of aggregates by tuning pattern geometry and cell seeding density. 3D aggregates of static (compact aggregates without any migratory sequalae) and migratory phenotype (identified via cells migrating away from an aggregate and establishing connections with neighboring aggregates; see FIGS. 12A-B) can be identified post-culturing at day 2, day 4, day 6 and day 8. […] Thus, these capture time points have data on cell monolayers (Day 2), self-assembly (Days 3-4) and compact 3D aggregates (Days 5-8). Migratory 3D aggregate phenotypes are visible at Days 5 with maximum numbers of cellular bridges across aggregates seen at Days 6-7. […]

O=C(CCCCCCC(=O)Nc1ccccc1)NO [SAHA, suberoylanilide hydroxamic acid]
effect on size of 3D aggregates (3 μM SAHA, treatment on day 7 post-seeding): reduce the size of 3D aggregates | effect on cellular bridges (invading multicellular microstructures) (3 μM SAHA, treatment on day 7 post-seeding, imaged Day 9): disassociates invading multicellular microstructures; also recorded: loss of cellular bridges | reduction in size (aggregate depth) post-treatment with SAHA (SKOV3 3D aggregates on Si—TiB2, treated day 7 for 48 hours, compared to controls, mean±SEM, n=3, p<0.001): ~50%
